Tests used:
[1] = test system: CAKI-1; test: Inhibitory concentration againstHuman Caki-1 Renal CellCarcinoma Cell Lines (CD70+) at 96th hour; n=1; assay type: functional, cell-based; settings: Homo sapiens
[2] = Inhibitory concentration againstHuman Karpas 299 Anaplastic Large Cell Lymphoma (CD30+) at 96th hour; n=9; assay type: functional, Homo sapiens
[3] = Inhibitory concentration againstHuman Karpas 299 Anaplastic Large Cell Lymphoma (CD30+) at 4th hour; n=1; assay type: functional, Homo sapiens
[4] = test system: NCI-H69; test: Inhibitory concentration againstHuman cell lung carcinoma cell line NCI-H69; n=3; assay type: functional, cell-based, Homo sapiens
[5] = Inhibitory concentration againstHuman cell lung carcinoma cell line NCI-H69/LX4; n=3; assay type: functional, cell-based, Homo sapiens
[6] = test system: CAKI-1; test: Inhibitory concentration againstHuman Caki-1 Renal CellCarcinoma Cell Lines (CD70+) at 4th hour; n=1; assay type: functional, cell-based; settings: Homo sapiens
[7] = Inhibitory concentration againstHuman Karpas 299 Anaplastic Large Cell Lymphoma (CD30+) at 96th hour; n=1; assay type: functional, Homo sapiens
[8] = test system: CAKI-1; test: Inhibitory concentration againstHuman Caki-1 Renal CellCarcinoma Cell Lines (CD70+) at 96th hour; n=14; assay type: functional, cell-based; settings: Homo sapiens
[9] = Inhibitory concentration againstHuman Karpas 299 Anaplastic Large Cell Lymphoma (CD30+) at 96th hour; n=39; assay type: functional, Homo sapiens

| Molecule | IC50 [3] | IC50 ([4]; Homo sapiens, NCI-H69) | IC50 [5] | IC50 [6] | IC50 [1] | further results |
| --- | --- | --- | --- | --- | --- | --- |
| COc1ccc(/C=C/C(=O)N2CC(CCl)c3c2cc(N)c2ccccc32)cc1 (stereo not given) | 0.34 nM | 0.87 nM | 2.87 nM | 0.59 nM | 0.68 nM | IC50 [2]: 1.17 nM |
| COc1cccc2c1C(=O)c1c(O)c3c(c(O)c1C2=O)C[C@@](O)(C(=O)CO)C[C@@H]3O[C@H]1C[C@H](N)[C@H](O)[C@H](C)O1 [DOXORUBICIN] |  | 11.3 nM | 1800 nM |  |  |  |
| CISPLATIN |  |  | 2820 nM |  |  | IC50 ([4]; nci-h69): 683 nM |

More lines, main results first:

| IC50 [3] | IC50 ([4]; Homo sapiens, NCI-H69) | IC50 [5] | IC50 [6] | Molecule | IC50 [1] | further results |
| --- | --- | --- | --- | --- | --- | --- |
| 0.28 nM |  |  | 0.55 nM | COc1cc2c(c(OC)c1OC)NC(C(=O)N1CC(CCl)c3c1cc(O)c1ncccc31)C2 (stereo not given) | 0.45 nM | IC50 [7]: 0.18 nM |
|  | 13.4 nM | 20.7 nM |  | COc1ccc(/C=C/C(=O)N2CC(CCl)c3c2cc(NC(=O)C(CCCCN)NC(=O)C(NC(=O)CCOCCOCCOCCOCCNC(=O)CBr)C(C)C)c2ccccc32)cc1 (stereo not given) |  |  |
| 525 nM |  |  | 251 nM | CO[C@@]12[C@H](COC(N)=O)C3=C(C(=O)C(C)=C(N)C3=O)N1C[C@@H]1N[C@@H]12 [MITOMYCIN] |  | IC50 [8]: 40 nM; IC50 [9]: 133 nM |
